Test results as given in US6806293B1, “Use of pheromone compounds having MAP kinase modulating activity” (Darley Pharmaceuticals LTD, priority 2001, dated 2004).

What was measured:
MAP kinase [1] = test: MAP kinase activation in Rat1 cells compared to EGF and TPA (Example 3, western blot, densitometry); type: cell-based, rat; details: 15 minutes; for Activity (% of EGF-activation), Conc. 1 / Activity (% of TPA-activation), Conc. 1: compound 1 × 10^-4 M; for Activity (% of EGF-activation), Conc. 1 / Activity (% of EGF-activation), Conc. 2: relative to EGF 50 ng/ml; for Activity (% of TPA-activation), Conc. 1 / Activity (% of TPA-activation), Conc. 2: relative to TPA 100 nM; for Activity (% of EGF-activation), Conc. 2 / Activity (% of TPA-activation), Conc. 2: compound 1 × 10^-5 M
Protocol: Rat1 cells were grown in 6 cm cell culture dishes in a tissue culture incubator at 37° C. in an atmosphere containing 5% carbon dioxide. The Rat1 cells were serum-starved for 16 hours. Three groups of the Rat1 cells were then treated for 15 minutes with either epidermal growth factor (EGF) (50 ng/ml), 12-O-tetradecanoylphorbol-13-acetate (TPA) (100nM), or with one of the pheromone compounds at one of two concentrations identified in Table 2 below. EGF and TPA are compounds which are known to activate MAP kinase and therefore serve as a basis of comparing the relative activity of the pheromone compounds. The cells were then washed with phosphate buffered saline (PBS) and lysed with radioimmunoprotein assay (RIPA) buffer. The proteins were then separated by sodium dodecyl sulfate-polyacrylamide gel electrophoresis (SDS-PAGE), transferred onto a nitrocellulose membrane and probed with anti-MAPK antibodies to produce a blot. The MAP kinase activity for the EGF-treated cells, the TPA-treated cells and the pheromone compound-treated cells, was analyzed and calculated using densitometric analysis. The results shown in Table 2 are presented as percent of EGF-stimulated active MAP kinase levels or TPA-stimulated active MAP kinase levels, respectively.

MAP kinase [2] = test: Screening method for pheromone compounds having MAP kinase modulating activity in Rat1 cells (Example 1); type: cell-based, rat; details: observed on screening in accordance with the described methods
Protocol: In a preferred screening method, as set forth in Example 1 herein, pheromone compounds with MAP kinase modulating activity are identified using Rat1 cells grown in cell culture dishes. Samples of the pheromone compound are added to respective cell culture dishes containing the Rat1 cells and incubated. A control group is established by treating a separate group of cell culture dishes containing Rat1 cells with the same solutions absent the pheromone compound. After incubation, the Rat1 cells are stimulated with epidermal growth factor to stimulate MAP kinase activation in the Rat1 cells. Upon completion of the incubation period, the Rat1 cells in each of the culture dishes are separately processed to obtain the corresponding cell extract containing proteins indicative of active kinase. The proteins are then separated using known electrophoresis techniques and prepared as a blot for the detection and measurement of active MAP kinase. The resulting blot is analyzed using densitometric techniques to measure the corresponding activity of the tested pheromone compound.
Rat1 cells were grown in 6 cm cell culture dishes in a tissue culture incubator at 37° C. in an atmosphere containing 5% carbon dioxide. The cells were serum-starved for 16 hours. […] A control group was established by adding to the remaining cell culture dishes the same solution absent the pheromone compound. After the 15 minute period, the Rat1 cells were stimulated with epidermal growth factor (EGF) (50 ng/ml) for about 15 minutes for one group and 30 minutes for a second group.
The Rat1 cells were then treated to remove the corresponding incubation medium and then the cells were rinsed twice each with 5 ml of cold phosphate buffered saline (PBS) and once with 5 ml of cold homogenizing buffer (Buffer H) containing 50 mM of β-glycerophosphate, (pH 7.3), 1.5 mM of ethylenebis(oxyethylenenitrilo)tetraacetic acid (EGTA), 1 mM of ethylenediaminetetraacetic acid (EDTA), 1 mM of dithiothreitol (DTT), 0.1 mM sodium orthovanadate, 1 mM benzamidine, 10 μg/ml of aprotinin, 10 μg/ml of leupeptin, and 2 μg/ml of pepstatin (2 μg/ml)+1% Triton-X-100.
The cells were harvested and lysed with 350 μl of cold Buffer H. Alternatively, the cells may be harvested and lysed with radioimmunoprotein assay buffer (RIPA buffer). Each extract was then centrifuged at 15,000×g for 15 minutes at 4° C. The resulting supernatants contained the protein extracts to be examined and were transferred to fresh, pre-cooled test tubes and kept on ice.
The proteins were then separated by sodium dodecyl sulfate-polyacrylamide gel electrophoresis (SDS-PAGE) and transferred, by western blotting, onto a nitrocellulose membrane.
The blot produced above was blocked with 2% bovine serum albumin (BSA) in Tris-buffered saline/Tween-20 (TBST) for 1 hour. The blot was then incubated with a monoclonal anti-active MAP kinase antibody obtained from Sigma, and diluted according to the manufacturer recommendations. The blot was incubated overnight at 4° C. Alternatively, the blot may also be incubated for about 30 minutes at 37° C., or from one to two hours at room temperature.
The treated blot was placed in a flat container and washed at least 3 times for 15 minutes each with TBST buffer at room temperature. The blot was then incubated with alkaline phosphatase-conjugated goat anti-mouse IgG obtained from Jackson Laboratories, diluted according to the manufacturer recommendations in TBST buffer for 45 minutes at room temperature. The blot was then subjected to a second washing, repeated 3 times, for 10 minutes each with TBST. An alkaline phosphatase (AP) detection technique was utilized to detect and measure the presence of active MAP kinase. Enhanced MAP kinase activity as compared to control is evidence that the compound is a MAP kinase activator. Lowered MAP kinase activity as compared to control is evidence that the compound is a MAP kinase inhibitor. […]

Row | Compound | Activity (% of EGF-activation), Conc. 1 (MAP kinase [1]) [%] | Activity (% of TPA-activation), Conc. 1 (MAP kinase [1]) [%] | Activity (% of EGF-activation), Conc. 2 (MAP kinase [1]) [%] | Activity (% of TPA-activation), Conc. 2 (MAP kinase [1]) [%] | mitogen-activating protein kinase modulation activity (activator or inhibitor) (MAP kinase [2])
1 | CCCCCC(C)=O [2-Heptanone] | 5 | 14 | 7 | 50 | activators
2 | C=CC(C)(C)O [2-methyl-3-butene-2-ol] | 5 | 35 | – | – | activators
3 | CCC(C)CCCC/C=C\CCCCCCC=O (stereo not drawn) [14-methyl-Cis-8-Hexadecenal] | 10 | 75 | 3 | 15 | activators
4 | CCCCCCCCCC/C=C\CCCCC(C)C [Cis-2-methyl-7-Octadecene] | 8 | 60 | 8 | 45 | activators
5 | CCCCCCCC/C=C\CCCOC(C)=O [Cis-4-Tridecen-1-yl-acetate] | 3 | 7 | 5 | 30 | activators
6 | CCCC/C=C\CCCCCCOC(C)=O [Cis-7-Dodecenyl-acetate] | 7 | 20 | 8 | 17 | activators
7 | CCCCCC/C=C\CCCCCC=O [Cis-7-Tetradecenal] | 7 | 20 | 5 | 10 | activators
8 | CCCCCC/C=C\CCCCCCO [Cis-7-Tetradecenol] | 9 | 30 | 9 | 25 | activators
9 | CCCCCC/C=C\CCCCCCOC(C)=O [Cis-7-Tetradecenyl-acetate] | 8 | 21 | 10 | 80 | activators
10 | CCCCC/C=C\CCCCCCO [Cis-7-Tridecenol] | 12 | 80 | 9 | 60 | activators
11 | CCCCCCCC/C=C\CCCCCCCCCCC [Cis-9-Heneicosene] | – | – | 3 | 22 | activators
12 | CCCCC/C=C\CCCCCCCCO [Cis-9-Pentadecenol] | 14 | 95 | 6 | 30 | activators
13 | CCCC/C=C\CCCCCCCCO [Cis-9-Tetradecenol] | 15 | 105 | 8 | 35 | activators
14 | CCCC/C=C\CCCCCCCCOC=O [Cis-9-Tetradecenyl-formate] | 12 | 90 | 12 | 55 | activators
15 | CCCC/C=C\CCCCCCCCC/C=C/C=O [Trans-2,Cis-13-Octadecadienal] | 4 | 30 | 8 | 40 | activators
16 | CC/C=C\C/C=C\CCC/C=C/CCO [Trans-3,Cis-8,Cis-11-Tetradecatrienol] | 6 | 10 | 5 | 50 | activators
17 | CCCC/C=C/CCCCOC(C)=O [Trans-5-decenyl-acetate] | 1 | – | 4 | 18 | activators
18 | C/C=C/CCCCCCCCCO [Trans-10-Dodecenol] | 2 | 10 | 10 | 60 | activators
19 | CCCCC/C=C\CCCC(=O)CCCCCCCCCC [cis-6-heneicosene-11-one] | – | – | – | – | activators
20 | Cis-9-Undecenyl-acetate | 18 | 115 | 3 | 10 | activators
21 | Heneicosene-11-one | 12 | 42 | 12 | 22 | activators
